# Experimental data from patent US11944607B2, “Treatment of progressive neurodegenerative disease with ibudilast” (MediciNova, Inc., priority 2007, dated 2024).
# Several values for one entry are separate records, joined by “and”; a condition that tells them apart may be missing. Equal values may be shown once.
# Columns and labels:
# [1] = test system: patients with multiple sclerosis; assay: Phase II placebo-controlled, randomized, double-blind study: relapse and disability (EDSS) outcomes; assay type: in vivo, human
# Method: (§1) A Phase II placebo-controlled, randomized, double-blind study was conducted using ibudilast in patients with multiple sclerosis. During year 1, patients were treated with 0 mg tid (placebo), 10 mg tid or 20 mg tid of ibudilast; during year 2, patients on placebo were randomized to receive either 10 mg tid or 20 mg tid of ibudilast (patients on 10 mg tid or 20 mg tid during the first year of the study continued on that dose during the second year). A baseline MRI scan was taken two weeks prior to treatment. Brain volume changes were assessed on an annual basis with subsequent MRI scans. MRI scans were performed every two months of the 2-year period to assess changes in T1 and T2 lesions.
# [2] = test system: patients with multiple sclerosis; assay: Phase II clinical trial: brain volume loss by cranial MRI; assay type: in vivo, human
# Method: as §1
# [3] = test system: patients with multiple sclerosis; assay: Phase II clinical trial: double-blind MRI analysis of new lesion evolution to persistent black holes; assay type: in vivo, human; conditions: for Mean Proportion of Lesions Evolving to PBH / Median Proportion of Lesions Evolving to PBH: new lesions at month 2, PBH at month 10
# Source text: The study is the result of randomized, double-blind, placebo-controlled analysis of year 1 MRI data with MN-166 administration. MRIs were collected bimonthly during the one year treatment period and were re-evaluated in a double-blind manner for this new analysis. Predefined endpoints for this evaluation were the rate of evolution of new lesions to persistent black holes and remyelinated lesions. The predefined statistical endpoints were at the rate of evolution of new lesions (NL) to persistent black holes (PBH) and remyelinated lesions (RL). New T1 gadolinium-enhancing or new T2 lesions were defined as NL in the first on-study Mill at month 2. […] Hypointense lesions at month 2 or 4 that were isointense at month 10 were RL. Relative Risk (RR) of NL evolution to PBH and RL per patient was analyzed using a general linear model with the error term from the Poisson distribution.
# [4] = test system: rat animal model for Alzheimer's disease; assay: Rat animal model for Alzheimer's disease; assay type: in vivo; conditions: present-tense example without data
# [5] = test system: animal model for progressive multiple sclerosis; assay: Animal model for progressive multiple sclerosis; assay type: in vivo; conditions: progressive MS model; present-tense example without data
# [6] = test system: animal model for Parkinson's disease; assay: Animal model for Parkinson's disease; assay type: in vivo; conditions: present-tense example without data
# activated microglia = conditions: dose-dependent; cited from earlier work
# [7] = administered systemically; cited from earlier work
# [8] = 30 mg (N = 94), 2 Years, p = 0.0832 vs Placebo to Active
# [9] = 60 mg (N = 98), 2 Years, p = 0.0516 vs Placebo to Active
# [10] = 2 Year Active (pooling of 30 mg and 60 mg dose groups), 2 Years, p = 0.0264 vs Placebo to Active
# [11] = Placebo to Active (to 30 mg/d), 2 Years (12 months placebo, 12 months drug)
# [12] = Placebo to Active (to 60 mg/d), 2 Years (12 months placebo, 12 months drug)
# [13] = Placebo to Active pooled (N = 100), 2 Years
smiles,measurement,setting,value
"CC(C)C(=O)c1c(C(C)C)nn2ccccc12 [ibudilast, 3-isobutyryl-2-isopropylpyrazolo[1,5-a]pyridine]","Disability Progression, number of patients","[1]; 30 mg (N = 94), 1 Year",5
same,"Disability Progression, percent of patients","[1]; 30 mg (N = 94), 1 Year",5.3%
same,"Disability Progression, number of patients",[1]; [8],10
same,"Disability Progression, percent of patients",[1]; [8],(10.6%)
same,"Disability Progression, number of patients","[1]; 60 mg (N = 98), 1 Year",4
same,"Disability Progression, percent of patients","[1]; 60 mg (N = 98), 1 Year",4.1%
same,"Disability Progression, number of patients",[1]; [9],10
same,"Disability Progression, percent of patients",[1]; [9],10.2%
same,Disability progression (worsened ≥1.0 on EDSS for 4 mo) (ITT),"[1]; 60 mg/day, year 1 (Table 1), p=0.334 vs pbo","pbo - 8%, 60 mg - 4%"
same,Annualized relapse rate,"[1]; 60 mg/day, year 1, ITT, p=0.1106 vs pbo","pbo - 0.9, 60 mg - 0.7 (ITT)"
same,IDSS (AUC of change from baseline EDSS),"[1]; 60 mg/day, year 1, ITT, p=0.1761 vs pbo","pbo: −0.05, 60 mg: −0.16 (ITT)"
same,IDSS (AUC of change from baseline EDSS),"[1]; 60 mg/day, year 1, completers, p=0.0365 vs pbo","pbo: −0.05, 60 mg: −0.24 (completers)"
same,Annualized relapse rate,"[1]; 60 mg/day, year 1, completers, p=0.0752 vs pbo","pbo - 0.8, 60 mg - 0.6 (completers)"
same,"Time to first relapse (ITT), median","[1]; 60 mg/day, year 1, p=0.0438 vs pbo (pbo 244 days)",Median for 60 mg >1 year
same,EDSS (% worsened) (ITT),"[1]; 60 mg/day, year 1, p=0.1771 vs pbo","pbo - 30%, 60 mg - 21.4%"
same,% of subjects exacerbation-free for 1 year (ITT),"[1]; 60 mg/day, p=0.033 vs pbo","pbo - 41%, 60 mg - 56.1%"
same,"Disability Progression, number of patients",[1]; [10],20/194
same,"Disability Progression, percent of patients",[1]; [10],10.4%
same,Likelihood of disability progression (≥1.0 point increase in EDSS for 4 consecutive months),"[1]; 24 months of drug vs 12 months of drug, p=0.026",less likely
same,"Disability Progression, number of patients",[1]; [11],8/51
same,"Disability Progression, percent of patients",[1]; [11],(15.7%)
same,"Disability Progression, number of patients",[1]; [12],13/49
same,"Disability Progression, percent of patients",[1]; [12],(26.5%)
same,"Disability Progression, number of patients",[1]; [13],21/100
same,"Disability Progression, percent of patients",[1]; [13],21%
same,Decrease in the rate of sustained disability progression,"[1]; extended (at least about two years) administration, compared with patients treated for less than two years",about 50%
same,"Prolongation of time to relapse, average","[1]; extended (at least about two years) administration, compared with untreated patients",about 130 days
same,Average loss of brain volume,"[2]; 60 mg a day, 1-year treatment period, placebo 1.2%, p 0.0352",0.79%
same,Brain volume loss compared to the other treatment groups (cranial MRI),"[2]; 60 mg per day for 24 months, p=0.030",significantly less
same,Brain volume loss compared to placebo (cranial MRI),"[2]; 60 mg per day, after 12 months, p=0.04",significant reduction
same,Brain volume loss,[2]; extended (at least about two years) administration,reduction
same,# Patients w. New Lesions at Month 2,[3]; 30 mg/day (n=94),64
same,Mean Proportion of Lesions Evolving to PBH,[3]; 30 mg/day,0.20
same,Median Proportion of Lesions Evolving to PBH,[3]; 30 mg/day,0.08
same,Relative Risk (for Evolution to PBH) vs. placebo,"[3]; 30 mg/day, p=0.074, listed as MN-166",0.735 and 0.74
same,# Patients w. New Lesions at Month 2,[3]; 60 mg/day (n=98),56
same,Mean Proportion of Lesions Evolving to PBH,[3]; 60 mg/day,0.16
same,Median Proportion of Lesions Evolving to PBH,[3]; 60 mg/day,0.04
same,Relative Risk (for Evolution to PBH) vs. placebo,"[3]; 60 mg/day, p=0.011",0.63
same,Formation of black holes on MRI,"[3]; first year of treatment, MS patients",decreased
same,Conversion of acute lesions to persistent black holes,[3]; overall benefit statement for extended administration,reduction
same,Cognitive function,[4],improvement
same,Functional outcomes,[5],improvement
same,Locomotion,[6],improvement
same,"Production of IL-10, NGF, GDNF and NT-4",activated microglia,enhance
same,"Production of nitric oxide (NO), reactive oxygen species, IL-1beta, IL-6 and TNF",activated microglia,suppress
same,Blood-brain barrier crossing,[7],crosses the blood-brain barrier
